# Data reported in paper PMC10714400, “Antimicrobial Peptide–Peptoid Hybrids with and without Membrane Disruption” (ACS Infectious Diseases, 2023).
# Where a SMILES comes first, the peptide text is derived from it. [ ]: non-standard residue; d: D form. Nleu = CC(C)CNCC(=O)O; Nlys = NCCCCNCC(=O)O
# Assays:
# [1] = system: human red blood cells (hRBC); test: Minimum hemolytic concentration (MHC); type: cell-based
# Description: We also measured minimal hemolysis concentrations (MHC) on human red blood cells by serial 2-fold dilution as an indication of toxicity against eukaryotic cells (Table 1).
# [2] = system: S. aureus COL (MRSA)
# Description: (§1) Antimicrobial activity was assayed for all the peptide–peptoids against P. aeruginosa PAO1, K. pneumoniae NCTC418, E. coli W3110, A. baumannii ATCC 19606, methicillin-resistant S. aureus COL (MRSA), and for selected peptides on P. aeruginosa PA14 and the polymyxin-B-resistant derivatives PA14 4.13, PA14 4.18, PA14 2P4, as well as the clinical isolates ZEM-1A and ZEM9A, K. pneumoniae OXA-48, S. aureus Newman, Enterobacter cloacae, Stenotrophomonas maltophilia, Burkholderia cenocepacia, and Staphylococus epidermidis. To determine the Minimal Inhibitory Concentration (MIC), the Broth Microdilution method was used.[72] A colony of bacteria was picked and grown in LB medium overnight at 37 °C.
# (§2) To each well was finally added 4 μL of the diluted bacterial suspension (see above), corresponding to approximately 5 × 10^5 CFU. For each test, two columns of the plate were kept for sterility control (medium only), growth control (medium with bacterial inoculum, no compound). The positive control, Polymyxin B (starting with a concentration of 16 μg/mL) in MH medium with bacterial inocula, was introduced in the two lines of the plate. The plates were incubated at 37 °C for ca. 18 h under static conditions. Next, 15 μL of 3-(4,5-dimethylthiazol-2-yl)-2,5-diphenyltetrazolium bromide (MTT)[73] (1 mg/mL in sterilized MilliQ deionized water) were added to each well, and the plates were incubated for 20–30 min at room temperature. The minimal inhibitory concentration (MIC) was defined as the lowest concentration of the compound that inhibits the visible growth of the tested bacteria (yellow) with the unaided eye.
# [3] = system: K. pneumoniae NCTC418
# Description: as §1, §2
# [4] = system: P. aeruginosa PAO1
# Description: as §1, §2
# [5] = system: PA14 4.18 (pmrB); conditions: CSV; […] MH at pH 8.5
# Description: as §1, §2
# [6] = system: E. coli W3110
# Description: as §1, §2
# [7] = system: PA14 4.13 (phoQ); conditions: CSV; […] MH at pH 8.5
# Description: as §1, §2
# [8] = system: PA14 2P4 (pmrB); conditions: CSV; […] MH at pH 8.5
# Description: as §1, §2
# [9] = system: A. baumannii ATCC19606
# Description: as §1, §2
# [10] = Circular dichroism, α-helical content; type: physicochemical; conditions: 0.1 mg/mL; for CD %α with 5 mM DPC: 10 mM phosphate buffer pH 7.4, 5 mM DPC; for CD %α with 20% TFE: 10 mM phosphate buffer pH 7.4, 20% TFE
# [11] = system: P. aeruginosa PA14; conditions: Table S3; […] MH at pH 8.5, 16-20 hours at 37 °C
# Description: as §1
# as §2, with “The plates were incubated at 37 °C for ca. 18 h under static conditions.” left out
# [12] = system: S. aureus Newman; conditions: Table S3; […] MH at pH 8.5
# Description: as §1
# as §2, with “The plates were incubated at 37 °C for ca. 18 h under static conditions.” left out
# [13] = Lipid vesicle leakage assay; conditions: 10 mM TRIS, 107 mM NaCl, pH 7.4
# Description: (c) Vesicle leakage assay for a selection of compounds.
# EYPG - EB11 1 EYPC - EB11
# Figure S2: Vesicle leakage experiments using 5(6)-carboxyfluorescein induced by peptides. EYPG and EYPC
# compound was added after 45 sec. After 240 seconds, 30 µL Triton X-100 1.2% was added for full release of […]
compound,measurement,setting,value
"CC(C)C[C@H](NC(=O)CN(CC(C)C)C(=O)[C@H](CCCCN)NC(=O)CNCCCCN)C(=O)N(CCCCN)CC(=O)N[C@@H](CC(C)C)C(=O)N(CC(=O)N[C@@H](CCCCN)C(=O)N(CC(=O)N[C@@H](CC(C)C)C(=O)N(CC(N)=O)CC(C)C)CC(C)C)CC(C)C [EB10, kKlLkLlKlLl] (H-[Nlys]K[Nleu]L[Nlys]L[Nleu]K[Nleu]L[Nleu]-NH2)",Hemolysis,[1],none of them showed any measurable hemolysis
same,MHC,[1],>2000 µg/mL
same,"MIC S. aureus COL (MRSA), full MH at pH 7.4","[2]; COL, 4 h, pH 7.4",>32 ug/mL
same,MIC S. aureus COL (MRSA) […] 7.4,"[2]; Table S2, […] MH, pH 7.4",32 µg/mL
same,MIC S. aureus COL (MRSA) […] 8.5,"[2]; Table S2, […] MH, pH 8.5",8 µg/mL
same,MIC S. aureus COL (MRSA) Full MH 7.4,"[2]; Table S2, full MH, pH 7.4",> 32 µg/mL
same,MIC S. aureus COL (MRSA) Full MH 8.5,"[2]; Table S2, full MH, pH 8.5",32 µg/mL
same,"MIC K. pneumoniae NCTC418, full MH at pH 7.4","[3]; NCTC418, 4 h, pH 7.4",>32 ug/mL
same,"MIC K. pneumoniae NCTC418, full MH at pH 8.5","[3]; NCTC418, 4 h, pH 8.5",>32 ug/mL
same,MIC K. pneumoniae NCTC418 […] 7.4,"[3]; Table S2, […] MH, pH 7.4",> 32 µg/mL
same,MIC K. pneumoniae NCTC418 […] 8.5,"[3]; Table S2, […] MH, pH 8.5",32 µg/mL
same,MIC K. pneumoniae NCTC418 Full MH 7.4,"[3]; Table S2, full MH, pH 7.4",> 32 µg/mL
same,MIC K. pneumoniae NCTC418 Full MH 8.5,"[3]; Table S2, full MH, pH 8.5",> 32 µg/mL
same,"MIC P. aeruginosa PAO1, full MH at pH 7.4","[4]; PAO1, 4 h, pH 7.4",>32 ug/mL
same,"MIC P. aeruginosa PAO1, full MH at pH 8.5","[4]; PAO1, 4 h, pH 8.5",>32 ug/mL
same,MIC P. aeruginosa PAO1 […] 7.4,"[4]; Table S2, […] MH, pH 7.4",4 µg/mL
same,MIC P. aeruginosa PAO1 […] 8.5,"[4]; Table S2, […] MH, pH 8.5",4 µg/mL
same,MIC P. aeruginosa PAO1 Full MH 7.4,"[4]; Table S2, full MH, pH 7.4",> 32 µg/mL
same,MIC P. aeruginosa PAO1 Full MH 8.5,"[4]; Table S2, full MH, pH 8.5",> 32 µg/mL
same,"MIC P. aeruginosa PA14 4.18, […] MH at pH 8.5",[5],8 ug/mL
same,"MIC E. coli W3110, […] MH at pH 8.5","[6]; CSV, […] MH at pH 8.5",3 ug/mL
same,"MIC E. coli W3110, full MH at pH 7.4","[6]; CSV, full MH at pH 7.4",>32 ug/mL
same,MIC E. coli W3110 […] 7.4,"[6]; Table S2, […] MH, pH 7.4",2 µg/mL
same,MIC E. coli W3110 […] 8.5,"[6]; Table S2, […] MH, pH 8.5",2 to 4 µg/mL
same,MIC E. coli W3110 Full MH 7.4,"[6]; Table S2, full MH, pH 7.4",> 32 µg/mL
same,MIC E. coli W3110 Full MH 8.5,"[6]; Table S2, full MH, pH 8.5",32 µg/mL
same,MIC E. coli W3110 […],"[6]; diluted MH ([…] MH, pH 8.5) per Table 1 footnote b, 16–20 h at 37 °C",2 to 4 µg/mL
same,"MIC P. aeruginosa PA14 4.13, […] MH at pH 8.5",[7],4 ug/mL
same,"MIC P. aeruginosa PA14 2P4, […] MH at pH 8.5",[8],8 ug/mL
same,"MIC A. baumannii ATCC19606, full MH at pH 7.4","[9]; ATCC19606, 4 h, pH 7.4",>32 ug/mL
same,"MIC A. baumannii ATCC19606, full MH at pH 8.5","[9]; ATCC19606, 4 h, pH 8.5",>32 ug/mL
same,MIC A. baumannii ATCC19606 […] 7.4,"[9]; Table S2, […] MH, pH 7.4",16 µg/mL
same,MIC A. baumannii ATCC19606 Full MH 7.4,"[9]; Table S2, full MH, pH 7.4",> 32 µg/mL
same,MIC A. baumannii ATCC19606 Full MH 8.5,"[9]; Table S2, full MH, pH 8.5",> 32 µg/mL
same,CD %α with 5 mM DPC,"[10]; DichroWeb, Contin-LL",11/11%
same,CD %α with 20% TFE,"[10]; DichroWeb, Contin-LL",11/11%
same,CD %α with 5 mM DPC,[10]; Table S2,11%
same,CD %α with 20% TFE,[10]; Table S2,11%
same,MIC P. aeruginosa PA14,[11],4 µg/mL
same,MIC S. aureus Newman,[12],8 µg/mL
same,Vesicle leakage activity on EYPC vesicles,[13]; egg yolk phosphatidyl choline vesicles,no activity
same,Vesicle leakage activity on EYPG vesicles,[13]; fluorescein-loaded anionic EYPG vesicles,weak or no vesicle leakage activity
